{
  "source": "patent US10335411B2",
  "about": "“Administration of ubiquitin-activating enzyme inhibitor and radiation” (Millennium Pharmaceuticals, Inc., priority 2014, dated 2019)",
  "key": {"HCT-116 cells": {"system": "HCT-116 cells", "experiment": "In vitro colony formation assay", "format": "cell-based", "conditions": "after 10 days, replicate wells", "protocol": "General Method: HCT-116 cells are grown in McCoy's 5A Medium supplemented with 10% fetal bovine serum. Cells are seeded (200/well) on a 12-well plate. The next day cells are treated with increasing concentrations of Compound 1 (in medium) and 2 hours later irradiated with 0, 2 or 4 gray. After an additional 6 hour, medium is replaced with and without (washout condition) Compound 1. After 10 days the number of colonies is counted and recorded. Radiator used is an X-ray irradiator (MBR-1520R-3, Hitachi Power Solutions Co., Ltd.).\nTen days following initiation of treatment, the number of HCT-116 colonies per well is counted using GelCount™ (Oxford Optronix Ltd.) and the raw data results are indicated in Table 6."}, "ST-02-0004 xenograft": {"system": "ST-02-0004 xenograft", "experiment": "ST-02-0004 xenograft model, Compound 1 and radiation", "format": "in vivo, mice", "conditions": "for Classification / Synergy score: through Day 21", "from_the_text": "The ST-02-0004 xenograft model is a human primary gastric cancer model. Approximately nine week old female BALB/c nude (Shanghai Sino-British SIPPR/BK Laboratory Animal Co., LTD.) mice were implanted subcutaneously with approximate 30 mm^3 ST-02-0004 tumor slices in the right flank. When the mean tumor volume reached approximately 162 mm^3, the animals were randomized into 6 treatment groups (n=8/group).\nCompound 1 [((1R,2R,3S,4R)-2,3-dihydroxy-4-(2-(3-(trifluoromethylthio) ? phenyl)pyrazolo[1,5-a]pyrimidin-7-ylamino)cyclopentyl)methyl sulfamate] is formulated in 10% HPbCD in sterile water and administered intravenously on days 0, 3, 7, 10, 14, 17 in the LU-01-0266 and HN-13-0007 models and on days 0, 3, 8, 11, 15, 18 in the ST-02-0004 model and in the second study with the LU-01-0030 model. Compound 1 formulation was prepared weekly and stored at room temperature in the dark.\nBeam-focused radiation was delivered using 2 Gray dosed on days 0, 1, 7, and 8 or on days 0, 3, 7, and 10 in the LU-01-0266 and HN-13-0007 models. In the ST-02-0004 model 2 Gray of radiation was delivered on days 0, 1, 3, and 8. A Rad Source RS-2000 X-ray irradiator was used for therapy (Rad Source). Before radiation, animals were anesthetized by i.p. injection using 1.0% sodium pentobarbital at 80 mg/kg (Vendor: Sigma). Focused radiation was applied to each mouse at 1 Gy/min.\nTumors were measured twice weekly using vernier calipers. Tumor volumes were calculated using the following formula: (0.5×[length×width^2]). Treatment groups and dosing/treatment schedules are indicated in Tables 1a, 2a, 3a, 4a, and 5a below. Tumor size and body weight are measured approximately twice a week for the duration of the study. Mice are euthanized when their tumor volume reached approximately 1000 mm^3. Tumor growth continued to be monitored after the dosing period in some studies. In Tables 1a, 2a, 3a, 4a, and 5a tumor volumes are shown for HN-13-0014 (day 21), LU-01-0030 (day 21), the second LU-01-0030 study (day 20), LU-01-0266 (day 20), ST-02-0004 (day 21) and FIN-13-0007 (day 24), respectively. Average tumor volume is reported as a function of time for selected groups of selected studies.\nMeasurements from day 0 to day 20, day 21 or day 24 are analyzed as specified in Tables below. All tumor volumes have a value of 1 added to them before log10 transformation. For each animal, the log tumor volume at day 0 is subtracted from the log tumor volume on the subsequent days. This difference vs. time is used to calculate an area under the curve (AUC) for each animal using the trapezoid rule. In instances when an animal in a treatment group is removed early from the study, the last observed tumor value is carried forward through all subsequent time points. The synergy score for the combination of agents A and B is defined as 100*(mean(AUCAB)−mean(AUCA)−mean(AUCB)+mean(AUCctl))/mean(AUCctl): where AUCAB, AUCA, AUCB, and AUCctl are the AUC values for animals in the combination group, the A group, the B group, and the control group, respectively. The standard error of the synergy score is computed based on the variation in the AUC values among the animals. […] If the P-value is above 0.05, then the combination is considered to be additive. If the P-value is below 0.05, and the synergy score is less than zero, then the combination is considered to be synergistic. If the P-value is below 0.05 and the synergy score was greater than zero, but the mean AUC for the combination was lower than the lowest mean AUC among the two single agent treatments, then the combination was sub-additive. If the P-value is below 0.05 and if the synergy score was greater than zero, and the mean AUC for the combination was greater than the mean AUC for at least one of the single agent treatments, then the combination was antagonistic."}, "[1]": {"conditions": "6.25 mg/kg compound 1 + 2 Gy Radiation D0, 1, 3, 8"}, "[2]": {"conditions": "15 mg/kg compound 1 + 2 Gy Radiation D0, 1, 3, 8"}},
  "note": "Values joined by “and” are separate entries in the source; they are usually repeats but may differ in a detail not shown here. Equal values may be shown once.",
  "data": [
    {"smiles": "NS(=O)(=O)OC[C@H]1C[C@@H](Nc2ccnc3cc(-c4cccc(SC(F)(F)F)c4)nn23)[C@H](O)[C@@H]1O", "note": "[Compound 1, ((1R,2R,3S,4R)-2,3-dihydroxy-4-(2-(3-(trifluoromethylthio)phenyl)pyrazolo[1,5-a]pyrimidin-7-ylamino)cyclopentyl)methyl sulfamate]", "values": [
      {"measurement": "Number of Colonies/well", "setting": "HCT-116 cells; Washout No, Radiation 0 Gray, Compound 1 30 nM", "value": 0},
      {"measurement": "Number of Colonies/well", "setting": "HCT-116 cells; Washout No, Radiation 0 Gray, Compound 1 100 nM", "value": 0},
      {"measurement": "Number of Colonies/well", "setting": "HCT-116 cells; Washout No, Radiation 0 Gray, Compound 1 300 nM", "value": 0},
      {"measurement": "Number of Colonies/well", "setting": "HCT-116 cells; Washout No, Radiation 2 Gray, Compound 1 30 nM", "value": 0},
      {"measurement": "Number of Colonies/well", "setting": "HCT-116 cells; Washout No, Radiation 2 Gray, Compound 1 100 nM", "value": 0},
      {"measurement": "Number of Colonies/well", "setting": "HCT-116 cells; Washout No, Radiation 2 Gray, Compound 1 300 nM", "value": 0},
      {"measurement": "Number of Colonies/well", "setting": "HCT-116 cells; Washout No, Radiation 4 Gray, Compound 1 30 nM", "value": 0},
      {"measurement": "Number of Colonies/well", "setting": "HCT-116 cells; Washout No, Radiation 4 Gray, Compound 1 100 nM", "value": 0},
      {"measurement": "Number of Colonies/well", "setting": "HCT-116 cells; Washout No, Radiation 4 Gray, Compound 1 300 nM", "value": 0},
      {"measurement": "Number of Colonies/well", "setting": "HCT-116 cells; Washout Yes, Radiation 0 Gray, Compound 1 30 nM", "value": "20 (2×) and 26"},
      {"measurement": "Number of Colonies/well", "setting": "HCT-116 cells; Washout Yes, Radiation 0 Gray, Compound 1 100 nM", "value": "1 (2×) and 0"},
      {"measurement": "Number of Colonies/well", "setting": "HCT-116 cells; Washout Yes, Radiation 0 Gray, Compound 1 300 nM", "value": 0},
      {"measurement": "Number of Colonies/well", "setting": "HCT-116 cells; Washout Yes, Radiation 2 Gray, Compound 1 30 nM", "value": "3 and 7 and 6"},
      {"measurement": "Number of Colonies/well", "setting": "HCT-116 cells; Washout Yes, Radiation 2 Gray, Compound 1 100 nM", "value": 0},
      {"measurement": "Number of Colonies/well", "setting": "HCT-116 cells; Washout Yes, Radiation 2 Gray, Compound 1 300 nM", "value": 0},
      {"measurement": "Number of Colonies/well", "setting": "HCT-116 cells; Washout Yes, Radiation 4 Gray, Compound 1 30 nM", "value": "1 (2×) and 4"},
      {"measurement": "Number of Colonies/well", "setting": "HCT-116 cells; Washout Yes, Radiation 4 Gray, Compound 1 100 nM", "value": "0 (2×) and 1"},
      {"measurement": "Number of Colonies/well", "setting": "HCT-116 cells; Washout Yes, Radiation 4 Gray, Compound 1 300 nM", "value": 0},
      {"measurement": "Tumor Volume Day 21", "setting": "ST-02-0004 xenograft; 6.25 mg/kg compound 1 IV BIWx3 + 2 Gy Radiation Beam D 0, 1, 3, 8", "value": 266.8, "unit": "mm^3"},
      {"measurement": "Tumor Volume Day 21", "setting": "ST-02-0004 xenograft; 6.25 mg/kg compound 1 IV BIWx3 = D 0, 3, 8, 11, 15, 18, single agent", "value": 697.1, "unit": "mm^3"},
      {"measurement": "Tumor Volume Day 21", "setting": "ST-02-0004 xenograft; 15 mg/kg compound 1 IV BIWx3 + 2 Gy Radiation Beam D 0, 1, 3, 8", "value": 178.2, "unit": "mm^3"},
      {"measurement": "Tumor Volume Day 21", "setting": "ST-02-0004 xenograft; 15 mg/kg compound 1 IV BIWx3 = D 0, 3, 8, 11, 15, 18, single agent", "value": 755.2, "unit": "mm^3"},
      {"measurement": "combination effect", "setting": "ST-02-0004 xenograft; Compound 1 at 6.25 mg/kg with 2 Gy of Radiation", "value": "additive combination effect"},
      {"measurement": "combination effect", "setting": "ST-02-0004 xenograft; Compound 1 at 15 mg/kg with 2 Gy of Radiation", "value": "synergistic combination effect"},
      {"measurement": "anti-tumor activity compared to the vehicle control", "setting": "ST-02-0004 xenograft; single agent, IV at 6.25 and 15 mg/kg for 3 weeks on Days 0, 3, 8, 11, 15 and 18", "value": "no significant anti-tumor activity"},
      {"measurement": "Classification", "setting": "ST-02-0004 xenograft; [1]", "value": "Additive (If the P-value is above 0.05, then the combination is considered to be additive)"},
      {"measurement": "Synergy score", "setting": "ST-02-0004 xenograft; [1]", "value": 10},
      {"measurement": "Classification", "setting": "ST-02-0004 xenograft; [2]", "value": "Synergy (If the P-value is below 0.05, and the synergy score is less than zero, then the combination is considered to be synergistic)"},
      {"measurement": "Synergy score", "setting": "ST-02-0004 xenograft; [2]", "value": "−49"}
    ]}
  ]
}
